Test results taken from ChEMBL document CHEMBL5131518, “Discovery of 2-Phenylquinolines with Broad-Spectrum Anti-coronavirus Activity” (ACS Med Chem Lett, 2022).

Assays:
[1] = in vitro; conditions: human, HEL 299 cells
Description: Selectivity index, ratio of CC50 for cytotoxicity against HEL 299 cells to EC50 for antiviral activity against HCoV-229E infected in HEL 299 cells

[2] = in vitro; conditions: monkey, Vero E6 cells
Description: Selectivity index, ratio of CC50 for cytotoxicity against African green monkey Vero E6 cells to EC50 for antiviral activity against SARS-CoV-2 infected in eGFP expressing African green monkey Vero E6 cells

[3] = Inhibition of SARS-CoV-2 RdRp expressed in Escherichia coli BL21 DE3 co-expressing […] incubated for 1 hr by fluorescent based assay; parameters: species or system Severe acute respiratory syndrome coronavirus 2
[4] = test system: Severe acute respiratory syndrome coronavirus 2; assay: Inhibition of SARS-CoV-2 RdRp expressed in Escherichia coli BL21 DE3 co-expressing […] at 30 uM incubated for 1 hr by fluorescent bases assay
[5] = biological target: Replicase polyprotein 1ab (Severe acute respiratory syndrome coronavirus 2) (UniProt P0DTD1); assay: Inhibition of SARS-CoV-2 nsp13 ATPase-associated activity using ATP as substrate at highest concentration of compound incubated for 30 mins by Biomol Green Reagent based assay

Structure (SMILES) | selectivity ratio [1] | selectivity ratio [2] | IC50 [3] [µM] | inhibition [4] [%] | inhibition [5] [%]
CCCOc1ccc(-c2cc(OCCN(CC)CC)c3cccc(OC)c3n2)cc1 | 8.2 | > 11 |  |  | 
CCCOc1ccc(-c2cc(OCCN3CCNCC3)c3cccc(OC)c3n2)cc1 | 25.6 | 4.3 |  |  | 
CCCOc1ccc(-c2cc(OCCN(CC)CC)c3cc(OC)cc(OC)c3n2)cc1 | 12.4 | > 7.7 |  |  | 
CCCOc1ccc(-c2cc(OCCN3CCN(Cc4ccccc4)CC3)c3c(OC)cc(OC)cc3n2)cc1 | 16.4 | > 12.7 | > 30 | 100 | 
CCCOc1ccc(-c2cc(OCCN3CCCC3)c3cc(OC)c(OC)cc3n2)cc1 |  | 1.3 |  |  | 
CCCOc1ccc(-c2cc(OCCN(CC)CC)c3cc(OC)c(OC)cc3n2)cc1 | 5.2 | 13.8 |  |  | 
CCCOc1ccc(-c2cc(OCCN3CCN(Cc4ccccc4)CC3)c3cccc(OC)c3n2)cc1 |  | 2.8 |  |  | 
CCCOc1ccc(-c2cc(OCCN3CCCCC3)c3cc(OC)c(OC)cc3n2)cc1 | 52.4 | 4.3 |  |  | 
CCCOc1ccc(-c2cc(OCCN3CCN(Cc4ccccc4)CC3)c3ccccc3n2)cc1 | > 1.6 | > 8.4 |  |  | 
CCCOc1ccc(-c2cc(OCCN(CC)CC)c3c(OC)c(OC)c(OC)cc3n2)cc1 |  | 2.9 |  |  | 
CCCOc1ccc(-c2cc(OCCN3CCCCC3)c3c(OC)ccc(OC)c3n2)cc1 | 10.2 | 8.8 | > 30 | 100 | 
CCCOc1ccc(-c2cc(OCCN3CCCC3)c3c(OC)ccc(OC)c3n2)cc1 | 13.4 | 7.9 |  |  | 
CCCOc1ccc(-c2cc(OCCN3CCc4cc(OC)c(OC)cc4C3)c3c(OC)cc(OC)cc3n2)cc1 |  |  | > 30 |  | 
C=CCn1c(S)nnc1CSc1ccccc1[N+](=O)[O-] |  |  |  |  | 90
CCCOc1ccc(-c2cc(OCCN(CC)CC)c3c(OC)ccc(OC)c3n2)cc1 | 13.8 | 5.3 |  |  | 
CCCOc1ccc(-c2cc(OCCN3CCCC3)c3cc(OC)cc(OC)c3n2)cc1 | > 2.5 | > 16.9 | > 30 | 100 | 
